How the values were obtained:
GLT-1 = GLT-1 content in brain of TBI rats; type: in vivo, SD rats; details: 30 mg/kg ip, 7 d continuous administration, FIG. 4
Method: (§1) The experimental grouping and drug administration plan were as follows. • Sham operation group (Group P): saline was given with the same volume as in the CTMB group; • Model group (T group): a blank emulsion was given with the same volume as in the CTMB group; • Medium dose group (Group M): a dose of 30 mg/kg of CTMB emulsion injection was given.
(§2) The experimental grouping and drug administration plan were the same as the test 3. After 7 d of continuous administration to each group, the rats were deeply anesthetized, the heads were severed and the brains were removed, about 60-120 mg of hemispheric cortex on the blood side was taken out, 10 times volume of ice-cold centrifugation buffer used for biochemical assay was added, homogenized for 10 min under an ice bath, and then centrifuged for 30 min at 4° C. and 14000 rpm/min. The supernatants were taken to test the GLT-1 and GABA content according to the instructions of GLT-1 and GABA content assay kit, respectively. Glutamate transporter 1 (GLT-1) is an important glutamate transporter in the brain that transports extracellular glutamate to the intracellular compartment. γ-aminobutyric acid (GABA) is an important inhibitory neurotransmitter, and a dramatic increase in the concentration of extracellular glutamate in pathological conditions leads to neuronal hyperexcitability toxicity.

GABA = GABA content in brain of TBI rats; type: in vivo, SD rats; details: 30 mg/kg ip, 7 d continuous administration, FIG. 4
Method: as §1, §2

[1] = test system: Parkinson's disease (PD) mice, 6-OHDA method; assay: 6-OHDA Parkinson's disease mice, rod-climbing experiment; type: in vivo, C57 mice; details: Group D, CTMB 20 mg/kg ip
Method: (§3) The mice were randomly divided into a sham operation group (group S, given a blank emulsion with a volume equal to that of the administered group), a model group (group M, given a blank emulsion with a volume equal to that of the administered group), a CTMB group (20 mg/kg, group D), and a levodopa group (levodopa: benserazide hydrochloride=4:1, 12 mg/kg, group L), each group included 10-12 mice, and all of them were administered intraperitoneally.
Preoperatively, mice were fasted for 12 h, and mice were anesthetized with 4% isoflurane induction and maintained with 1.5% isoflurane. The mice were subsequently immobilized on a brain stereotaxic apparatus. The bregma and lambda points were exposed by gently wiping the cranial surface with a cotton swab after cutting the scalp. The stereotaxic apparatus was adjusted to align the heights of the bregma and lambda points, thereby leveling the skull. The bregma point was designated as the origin, the coordinates where the injection site was located were located, and the drill was used to drill a small hole in the skull above the injection site.
6-OHDA (12.5 μg/μL) was injected into the striatum region (AP+0.5 mm; ML+2.00 mm; DV-3.00 mm and-2.00 mm) of the mice, and 1 μL 6-OHDA was injected into each of the two points at a rate of 0.5 μL/min. The needle was left in place for 3 min after the injection was completed, and then the injection needle was lifted, and the scalp of the mice was sutured and disinfected. The sham operation group was injected with an equal volume of saline containing 0.02% ascorbic acid, and other operations were performed as above. After the procedure, the mice were placed in the cage at an appropriate temperature. After awakening from anesthesia, the mice were kept normally.
The rod-climbing experiment: the rod-climbing experiment was mainly used to test the limb movement ability of mice and to assess the symptoms of motor delay. This experiment evaluated the ability of mice to grasp and maneuver on a pole to descend to their home cage. A cork ball was fixed to an iron pole with a diameter of 1 cm and a length of 65 cm. The head of the mice was put down on the top of the pole, and the mice usually naturally descended down along the pole to return to their cage. The time for the mice to descend to the bottom was recorded. Results were averaged over 3 consecutive measurements.
The motor function of the mice was comprehensively assessed using the rod-climbing experiment and the hanging experiment at 1, 2, 3, and 4 weeks after drug administration.

[2] = test system: neurons of substantia nigra region and striatum of PD mice; assay: HE staining of substantia nigra and striatum of PD mice; type: in vivo, C57 mice; details: Group D, CTMB 20 mg/kg ip, 4 weeks; compared with model group; FIG. 5-7
Method: as §3
After completing the evaluation of motor function after 4 weeks of drug administration, the mice were deeply anesthetized, perfused with 20 mL of saline and 20 mL of 4% paraformaldehyde via the heart, and the brains were rapidly severed and extracted from the head, which were then preserved and fixed in 4% paraformaldehyde for 72 h after removal, and then embedded with paraffin to prepare the slices with a thickness of 4 μm for subsequent pathological and histological studies.
Hematoxylin-eosin (HE) staining may be used to observe changes in the pathological condition of brain tissue. […]

## COc1cc(OC)c(OC)cc1C=C1CCC1 [CTMB, 1-(cyclobutylidenemethyl)-2,4,5-trimethoxybenzene]
GLT-1
  GLT-1 content in brain: reduces the GLT-1 content
  ratio of GLT-1 and GABA: significantly reduces the ratio of GLT-1 and GABA
GABA
  GABA content in brain: increases the content of GABA
[1]
  Rod-climbing time, 1 week of administration: 6.38 ± 1.22 s
  Rod-climbing time, 2 weeks of administration: 6.41 ± 1.12 s
  Rod-climbing time, 3 weeks of administration: 5.50 ± 1.02^#, * s
  Rod-climbing time, 4 weeks of administration: 5.28 ± 0.92^#, * s
[1]; baseline 2 weeks after 6-OHDA
  Rod-climbing time, Before administration: 9.29 ± 1.92 s
[2]
  degree of pathological damage to the substantia nigra region and striatum: reduced
